The values that follow are results of earlier work, collected in US8584539B2, “Delivery device for dispensing pharmaceutical dosage forms into dissolution testing apparatus” (Rohm and Haas Company, priority 2010, dated 2013).

SMILES strings stand for the structures. Like-named read-outs stand apart in the source and are kept apart here.

In the case of `O=C(O)Cc1ccccc1Nc1c(Cl)cccc1Cl` [diclofenac sodium], the solubility entry (low pH of the stomach) was “essentially insoluble” and the solubility entry (near neutral conditions of the upper GI) is reported as “soluble”.
